Source: patent US11090308B2, “Methods of treating liver disorders or lipid disorders with a THR-beta agonist” (Madrigal Pharmaceuticals, Inc., priority 2016, dated 2021)

Legend:
[1] = Excretion mass balance in rats after a single oral dose of [14C]MGL-3196 (Group 1); type: in vivo, rat; conditions: for Percent Recovery, Carcass / Percent Recovery, Residues / Percent Recovery, Total: totals up to 168 h
Description: (§1) The study utilized 2 groups of male SD rats (Groups 1 and 2) and 1 group of male LE rats (Group 3); which were obtained from Hilltop Lab Animals, Inc. (Scottdale, Pa.). Group 1 was used for evaluation of excretion mass balance; Group 2 was used for evaluation of plasma total radioactivity PK; and Group 3 was used for evaluation of tissue distribution of total radioactivity. All rats received a single PO dose of [^14C]MGL-3196. The target dose was 5 mg/kg using a formulation prepared in a 4% DMSO/96% of 2% Klucel, 0.1% Tween-80, 0.09% methylparaben and 0.01% propylparaben in purified MilliQ water vehicle.
The following studies have been conducted: (a) in vitro drug protein binding, transporter (organic anion transporting polypeptide [OATP], P-glycoprotein [P-gp], breast cancer-related protein [BCRP], and multiple drug resistance protein 1 [MDR1]), and cytochrome P-450 enzyme assays to investigate absorption, distribution, and excretion; (b) in vivo MGL-3196 rat and dog oral PK and bioavailability studies; (c) in vivo ^14C-MGL-3196 rat and dog oral pharmacokinetics, absorption, excretion, and tissue distribution by quantitative whole-body autoradiography (QWBA) studies; and (d) liver disposition of MGL-3196 using an in vitro sandwiched hepatocyte model system (B-CLEAR® technology) in dog (SCDH) and human (SCHH) hepatocytes.

[2] = Dog 14C-MGL-3196 mass balance study; type: in vivo
Source text: Tables 2A-2B show ^14C-MGL-3196 dog ADME study design.

[3] = Plasma total radioactivity pharmacokinetics in SD rats (Group 2); type: in vivo, rat
Description: as §1

[4] = Tissue distribution by quantitative whole-body autoradiography, blood and plasma radioactivity in LE rats (Group 3); type: in vivo, rat; conditions: for Tissue to Plasma Ratio, Adrenal Gland / Tissue to Plasma Ratio, Heart / Tissue to Plasma Ratio, Kidney / Tissue to Plasma Ratio, Liver / Tissue to Plasma Ratio, Lung / Tissue to Plasma Ratio, Muscle / Tissue to Plasma Ratio, Skin / Tissue to Plasma Ratio, Spleen / Tissue to Plasma Ratio, Thyroid / Tissue to Plasma Ratio, Brain: rat
Description: as §1

[5] = male SD rats Group 1, single PO 5 mg/kg, mean
[6] = male SD rats Group 1, single PO 5 mg/kg, mean, through 168 h
[7] = 3 male beagle dogs, 0-168 hr post-dose, Mean ± SD (% RSD)
[8] = male SD rats Group 2, single PO 5 mg/kg
[9] = male LE rats Group 3, single PO 5 mg/kg
[10] = pigmented male rats, single PO dose

## CC(C)c1cc(Oc2c(Cl)cc(-n3nc(C#N)c(=O)[nH]c3=O)cc2Cl)n[nH]c1=O [[^14C]MGL-3196]
[1]; Mean
  Percent Recovery, Carcass: 1.1%
  Percent Recovery, Residues: 1.3%
  Percent Recovery, Total: 87.2%
[1]; Ra#3
  Percent Recovery, Carcass: 1.0%
  Percent Recovery, Residues: 0.9%
  Percent Recovery, Total: 87.3%
[1]; Rat#1
  Percent Recovery, Carcass: 1.1%
  Percent Recovery, Residues: 1.7%
  Percent Recovery, Total: 82.6%
[1]; Rat#2
  Percent Recovery, Carcass: 1.2%
  Percent Recovery, Residues: 1.3%
  Percent Recovery, Total: 91.7%
[1]; [5]
  radioactivity recovered in the cage residues, % of the administered dose: 1.3%
  radioactivity recovered in the carcass, % of the administered dose: 1.1%
[1]; [6]
  radioactivity recovered in the feces, % of the administered dose: 68.6%
  radioactivity recovered in the urine, % of the administered dose: 16.2%
  total recovery of radioactivity, % of the administered dose: 87.2%
[2]; [7]
  % of Dose in Cage Residue: 4.55 ± 3.399 (74.8) %
  % of Dose in Feces: 76.3 ± 25.62 (33.6) %
  % of Dose in Urine: 2.57 ± 1.296 (50.4) %
  Total % of Dose Recovered (urine + feces + cage residue): 83.37 ± 24.063 (28.9) %
[2]; dog, 100 mg/kg
  % of total administered recovered in feces: ~83%
  % of total administered recovered in urine: 2.5%
  share of the radioactivity recovered that was in feces: at least 92%
  share of the radioactivity recovered that was in urine: 2.7%
[3]; [8]
  mean AUCinf obs of plasma total radioactivity: 25346 ng equiv·h/mL
  mean Cmax of plasma total radioactivity: 2230 ng equiv/mL
[3]; male SD rats, last time point for this group
  radioactivity quantifiable in plasma through: 48 h
[4]; 1 h
  Tissue to Plasma Ratio, Adrenal Gland: 0.34
  Tissue to Plasma Ratio, Heart: 0.30
  Tissue to Plasma Ratio, Kidney: 3.51
  Tissue to Plasma Ratio, Liver: 16.28
  Tissue to Plasma Ratio, Lung: 0.41
  Tissue to Plasma Ratio, Muscle: 0.12
  Tissue to Plasma Ratio, Skin: 0.21
  Tissue to Plasma Ratio, Spleen: 0.17
  Tissue to Plasma Ratio, Thyroid: 0.27
[4]; 2 h
  Tissue to Plasma Ratio, Adrenal Gland: 0.35
  Tissue to Plasma Ratio, Heart: 0.26
  Tissue to Plasma Ratio, Kidney: 2.28
  Tissue to Plasma Ratio, Liver: 12.40
  Tissue to Plasma Ratio, Lung: 0.42
  Tissue to Plasma Ratio, Muscle: 0.07
  Tissue to Plasma Ratio, Skin: 0.23
  Tissue to Plasma Ratio, Spleen: 0.10
  Tissue to Plasma Ratio, Thyroid: 0.45
[4]; 4 h
  Tissue to Plasma Ratio, Adrenal Gland: 0.28
  Tissue to Plasma Ratio, Brain: 0.03
  Tissue to Plasma Ratio, Heart: 0.29
  Tissue to Plasma Ratio, Kidney: 2.97
  Tissue to Plasma Ratio, Liver: 12.76
  Tissue to Plasma Ratio, Lung: 0.48
  Tissue to Plasma Ratio, Muscle: 0.07
  Tissue to Plasma Ratio, Skin: 0.30
  Tissue to Plasma Ratio, Spleen: 0.13
  Tissue to Plasma Ratio, Thyroid: 0.20
[4]; 8 h
  Tissue to Plasma Ratio, Adrenal Gland: 0.56
  Tissue to Plasma Ratio, Brain: 0.09
  Tissue to Plasma Ratio, Heart: 0.62
  Tissue to Plasma Ratio, Kidney: 2.98
  Tissue to Plasma Ratio, Liver: 11.90
  Tissue to Plasma Ratio, Lung: 0.68
  Tissue to Plasma Ratio, Muscle: 0.23
  Tissue to Plasma Ratio, Skin: 0.72
  Tissue to Plasma Ratio, Spleen: 0.36
  Tissue to Plasma Ratio, Thyroid: 0.46
[4]; Cmax
  Tissue to Plasma Ratio, Adrenal Gland: 0.51
  Tissue to Plasma Ratio, Brain: 0.08
  Tissue to Plasma Ratio, Heart: 0.57
  Tissue to Plasma Ratio, Kidney: 2.97
  Tissue to Plasma Ratio, Liver: 12.76
  Tissue to Plasma Ratio, Lung: 0.62
  Tissue to Plasma Ratio, Muscle: 0.21
  Tissue to Plasma Ratio, Skin: 0.65
  Tissue to Plasma Ratio, Spleen: 0.33
  Tissue to Plasma Ratio, Thyroid: 0.42
[4]; male LE rats
  Radioactivity concentrations at 1392 h post-dose in 7 of 40 tissues (blood, liver, Harderian gland, pancreas, pigmented skin, lung, eye lens): > 7.90 ng equiv/g
  radioactivity quantifiable in blood through: 768 h
  radioactivity quantifiable in plasma through: 168 h
[4]; [9]
  AUCinf obs of blood total radioactivity: 54361 ng equiv·h/g
  AUCinf obs of plasma total radioactivity: 20430 ng equiv·h/mL
  Cmax of plasma total radioactivity (by LSC): 1078 ng equiv/mL
[4]; [10]
  Liver AUC (exposure) higher than plasma: approximately 10 ×
  blood AUC higher than plasma: about 2 ×
  kidney cortex AUC higher than plasma: approximately 3 ×
  liver:plasma AUCall ratio: 10.5
[4]; pigmented male rats, single PO dose, listed as 14C-MGL-3196
  Liver AUC (exposure) higher than plasma: ~10 ×
[4]; throughout the distribution phase (up to 8 h post-dose)
  Tissue to plasma ratios for all tissues except liver, kidney, urinary bladder, and cecum: < 1
